{"source": "paper PMC11078216", "about": "“Discovery of potent and selective activity-based probes (ABPs) for the deubiquitinating enzyme USP30” (RSC Chemical Biology, 2024)", "assay_in_all_cases": "ABPP chemical proteomics (LC-MS/MS) in HEK293T cells", "format_in_all_cases": "cell-based", "key": {"NPM3": {"target": "T1, NPM3 (Homo sapiens, UniProt O75607)", "T1 construct": "endogenous in cells; host or cells: HEK293T", "T1 sequence (O75607 whole entry)": "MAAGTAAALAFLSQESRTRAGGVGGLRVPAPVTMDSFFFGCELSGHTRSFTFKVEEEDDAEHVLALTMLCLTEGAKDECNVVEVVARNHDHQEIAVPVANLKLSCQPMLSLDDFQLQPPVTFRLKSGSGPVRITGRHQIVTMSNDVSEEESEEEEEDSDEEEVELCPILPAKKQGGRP", "settings": "IMP-2587 labelling vs DMSO, 30 nM, 10 min, HEK293T (Table S2, Fig.5a)", "experimental": "(§1) To explore the selectivity of IMP-2587 and IMP-2586 across the whole proteome, we performed quantitative activity-based protein profiling (ABPP) in HEK293T cells following treatment with IMP-2587 or IMP-2586 (Fig. 3a). After ABP incubation, cells were lysed, and probe-labelled proteins were ligated to biotinylated capture reagents.[27] […] USP30 was outcompeted by corresponding parent inhibitors for each ABP (Fig. 5b and d and Tables S3 and S5, ESI ^†), confirming the high potency and rapid engagement of IMP-2587 and IMP-2586 in cells. […] DESI1 and DESI2 are small ubiquitin-related modifier (SUMO) proteases,[3,29–32] and IMP-2587 and IMP-2586 may offer a starting point for future development of DESI ABPs. […]\n(§2) d) Live cell probe incubation, lysate click chemistry and precipitation 6-well HEK293T cells were incubated with media containing compounds ABP 2 and ABP 4 at indicated concentrations for 1 h at 37 °C. The cells were washed with PBS and lysed with lysis buffer (50 μL (1% (v/v) Triton X-100, 0.1% (w/v) sodium dodecyl sulfate (SDS), EDTA-free complete protease inhibitor cocktail (1×, Roche) in PBS on ice for 10 min. The lysates were scraped and transferred to corresponding Lo-Bind Eppendorfs. Each lysate was sonicated for 1 minute, and the samples centrifuges at 5,000 x g at 4 °C for 5 minutes to pellet insoluble cellular debris. The supernatant was collected, and protein concentration was determined using the DC Protein Assay (Bio-Rad) as per manufacturer’s instructions, and normalised to lowest concentrated sample (e.g. 1 mg/mL, using lysis buffer). The following “click mixture” was prepared separately, preparing 6 μL for every 100 μL of […]\n(§3) Capture reagent (AzRB/AzT for ABP 2, YnT/YnB for ABP 4 10 mM in DMSO, 1 vol; final concentration […]\n(§4) CuSO4 (50 mM in water, 2 vol; final concentration in reaction 1 mM)\n(§5) TCEP (50 mM in water, 2 vol; final concentration in reaction 1 mM)\n(§6) TBTA (10 mM in DMSO, 1 vol; final concentration in reaction 100 µM)\n(§7) The click mixture was vortexed and incubated at room temperature for 2 min before 6 μL of the mixture was added to every 100 μL of lysate. The reaction mixtures were shaken at room temperature for 1 h before being quenched with EDTA (500 mM in H2O) to a final concentration of 10 mM.\n(§8) Proteins were precipitated by adding H2O (1 vol), MeOH (2 vol) and CHCl3 (0.5 vol), vortexing briefly then centrifuging at 17,000 × g for 5 min. The top H2O/MeOH layer was discarded and the middle layer of protein pellet and lower CHCl3 layer retained. The suspension was washed with MeOH (300 μL), and sonicated to break up the pellet. The proteins were pelleted by centrifugation at 10,000–17000 × g for 5–10 min or until a compact pellet was formed. The protein pellet was washed once more with MeOH (1 mL). The pellet was resuspended by sonicating and completely dissolving in 1% (w/v) SDS in PBS (to 5 mg/mL protein) before being made up to 1 mg/mL protein with PBS.\n(§9) The lysate samples (10-20 μg) were mixed with 4× Laemmli sample loading buffer (250 mM Tris -HCl pH 6.8, 30% (v/v) glycerol, 10% (w/v) SDS, 0.05% (w/v) bromophenol blue) supplemented with 20% v/v β-mercaptoethanol (BME) and boiled for 10 min at 95 °C. The resulting protein samples were separated according to the protocol in section 3.2.c. Gel were imaged on a Typhoon imager (GE Healthcare; λEx 532 nm, λEm 575 nm for TAMRA. For protein loading quantification, gels were stained with Coomassie blue staining solution overnight, rinsed with water and imaged on an ImageQuant™ LAS 4000 imager (GE Healthcare). f) Neutravidin biotin enrichment (Affinity pull-down)\n(§10) Click chemistry and precipitation steps were carried out as described in section 3.2.d, on at least 400ug of protein per sample. The pellet was resuspended by sonicating and completely dissolving in 1% (w/v) SDS in HEPES 50 mM pH 8.0, before being made up to 1 mg/mL protein with HEPES 50 mM pH 8.0 to […]\n(§11) achieve a final concentration of 0.2% SDS. 20uL of each samples was collected as TL (Total lysate) […]\n(§12) samples. […]"}, "RPS8": {"target": "T2, RPS8 (Homo sapiens, UniProt P62241)", "T2 construct": "endogenous in cells; host or cells: HEK293T", "settings": "IMP-2587 labelling vs DMSO, 30 nM, 10 min, HEK293T (Table S2, Fig.5a)", "experimental": "as §1, §2, §3, §4, §5, §6, §7, §8, §9, §10, §11, §12"}, "UCHL1": {"target": "T3, UCHL1 (Homo sapiens, UniProt P09936)", "T3 sequence (P09936 1-223)": "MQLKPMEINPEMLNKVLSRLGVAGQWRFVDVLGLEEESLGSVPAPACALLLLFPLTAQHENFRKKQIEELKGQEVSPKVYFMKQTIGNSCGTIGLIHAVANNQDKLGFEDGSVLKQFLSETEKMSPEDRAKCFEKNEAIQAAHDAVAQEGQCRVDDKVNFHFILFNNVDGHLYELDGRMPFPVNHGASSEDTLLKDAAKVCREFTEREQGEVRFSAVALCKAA", "set-up": "endogenous in cells; host or cells: HEK293T", "settings": "IMP-2587 labelling vs DMSO, 30 nM, 10 min, HEK293T (Table S2, Fig.5a)", "experimental": "as §1\nas §9, with “The resulting protein samples were separated according to the protocol in section 3.2.c.” left out, “pull-down) […]” for “pull-down)”"}, "ALYREF": {"target": "T4, ALYREF (Homo sapiens, UniProt Q86V81)", "T4 construct": "endogenous in cells; host or cells: HEK293T", "settings": "IMP-2586 labelling vs DMSO, 30 nM, 10 min, HEK293T (Table S4, Fig.5c)", "experimental": "as §1, §2, §3, §4, §5, §6, §7, §8, §9, §10, §11, §12"}, "AURKAIP1": {"target": "T5, AURKAIP1 (Homo sapiens, UniProt Q9NWT8)", "T5 construct": "endogenous in cells; host or cells: HEK293T", "settings": "IMP-2586 labelling vs DMSO, 30 nM, 10 min, HEK293T (Table S4, Fig.5c)", "experimental": "as §1, §2, §3, §4, §5, §6, §7, §8, §9, §10, §11, §12"}, "CAV1": {"test_system": "CAV1", "settings": "IMP-2586 labelling vs DMSO, 30 nM, 10 min, HEK293T (Table S4, Fig.5c)", "experimental": "as §1, §2, §3, §4, §5, §6, §7, §8, §9, §10, §11, §12"}, "CNP": {"target": "T6, CNP (Homo sapiens, UniProt P09543)", "T6 construct": "endogenous in cells; host or cells: HEK293T", "T6 sequence (P09543 whole entry)": "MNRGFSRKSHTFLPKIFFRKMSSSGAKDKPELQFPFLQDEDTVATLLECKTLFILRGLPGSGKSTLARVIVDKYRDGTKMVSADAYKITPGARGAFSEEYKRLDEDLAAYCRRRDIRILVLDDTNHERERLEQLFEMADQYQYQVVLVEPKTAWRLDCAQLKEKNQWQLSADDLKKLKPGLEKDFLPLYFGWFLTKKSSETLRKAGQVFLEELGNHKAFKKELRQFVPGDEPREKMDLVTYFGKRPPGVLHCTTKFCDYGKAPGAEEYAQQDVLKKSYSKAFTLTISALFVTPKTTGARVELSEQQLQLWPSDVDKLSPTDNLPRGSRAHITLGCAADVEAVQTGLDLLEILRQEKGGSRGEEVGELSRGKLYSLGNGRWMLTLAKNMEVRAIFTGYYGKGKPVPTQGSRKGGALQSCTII", "settings": "IMP-2586 labelling vs DMSO, 30 nM, 10 min, HEK293T (Table S4, Fig.5c)", "experimental": "as §1, §2, §3, §4, §5, §6, §7, §8, §9, §10, §11, §12"}, "HSDL1": {"target": "T7, HSDL1 (Homo sapiens, UniProt Q3SXM5)", "T7 construct": "endogenous in cells; host or cells: HEK293T", "T7 sequence (Q3SXM5 whole entry)": "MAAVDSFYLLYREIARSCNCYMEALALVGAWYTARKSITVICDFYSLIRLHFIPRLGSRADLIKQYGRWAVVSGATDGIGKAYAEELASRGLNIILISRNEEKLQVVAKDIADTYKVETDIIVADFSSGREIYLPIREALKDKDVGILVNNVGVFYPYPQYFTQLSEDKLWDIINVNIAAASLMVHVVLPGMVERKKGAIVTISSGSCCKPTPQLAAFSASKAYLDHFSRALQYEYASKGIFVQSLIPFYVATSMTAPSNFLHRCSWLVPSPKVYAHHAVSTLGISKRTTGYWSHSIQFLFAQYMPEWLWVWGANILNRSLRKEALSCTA", "settings": "IMP-2586 labelling vs DMSO, 30 nM, 10 min, HEK293T (Table S4, Fig.5c)", "experimental": "as §1, §2, §3, §4, §5, §6, §7, §8, §9, §10, §11, §12"}, "SFT2D3": {"target": "T8, SFT2D3 (Homo sapiens, UniProt Q587I9)", "T8 construct": "endogenous in cells; host or cells: HEK293T", "T8 sequence (Q587I9 whole entry)": "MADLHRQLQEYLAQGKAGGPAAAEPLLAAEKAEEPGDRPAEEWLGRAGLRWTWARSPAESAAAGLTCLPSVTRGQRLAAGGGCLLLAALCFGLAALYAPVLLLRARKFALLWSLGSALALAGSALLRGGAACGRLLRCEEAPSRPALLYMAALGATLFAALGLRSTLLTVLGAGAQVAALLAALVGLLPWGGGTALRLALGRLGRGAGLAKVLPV", "settings": "IMP-2586 labelling vs DMSO, 30 nM, 10 min, HEK293T (Table S4, Fig.5c)", "experimental": "as §1, §2, §3, §4, §5, §6, §7, §8, §9, §10, §11, §12"}, "SMARCA4": {"target": "T9, SMARCA4 (Homo sapiens, UniProt P51532)", "T9 construct": "endogenous in cells; host or cells: HEK293T", "T9 sequence (P51532 whole entry)": "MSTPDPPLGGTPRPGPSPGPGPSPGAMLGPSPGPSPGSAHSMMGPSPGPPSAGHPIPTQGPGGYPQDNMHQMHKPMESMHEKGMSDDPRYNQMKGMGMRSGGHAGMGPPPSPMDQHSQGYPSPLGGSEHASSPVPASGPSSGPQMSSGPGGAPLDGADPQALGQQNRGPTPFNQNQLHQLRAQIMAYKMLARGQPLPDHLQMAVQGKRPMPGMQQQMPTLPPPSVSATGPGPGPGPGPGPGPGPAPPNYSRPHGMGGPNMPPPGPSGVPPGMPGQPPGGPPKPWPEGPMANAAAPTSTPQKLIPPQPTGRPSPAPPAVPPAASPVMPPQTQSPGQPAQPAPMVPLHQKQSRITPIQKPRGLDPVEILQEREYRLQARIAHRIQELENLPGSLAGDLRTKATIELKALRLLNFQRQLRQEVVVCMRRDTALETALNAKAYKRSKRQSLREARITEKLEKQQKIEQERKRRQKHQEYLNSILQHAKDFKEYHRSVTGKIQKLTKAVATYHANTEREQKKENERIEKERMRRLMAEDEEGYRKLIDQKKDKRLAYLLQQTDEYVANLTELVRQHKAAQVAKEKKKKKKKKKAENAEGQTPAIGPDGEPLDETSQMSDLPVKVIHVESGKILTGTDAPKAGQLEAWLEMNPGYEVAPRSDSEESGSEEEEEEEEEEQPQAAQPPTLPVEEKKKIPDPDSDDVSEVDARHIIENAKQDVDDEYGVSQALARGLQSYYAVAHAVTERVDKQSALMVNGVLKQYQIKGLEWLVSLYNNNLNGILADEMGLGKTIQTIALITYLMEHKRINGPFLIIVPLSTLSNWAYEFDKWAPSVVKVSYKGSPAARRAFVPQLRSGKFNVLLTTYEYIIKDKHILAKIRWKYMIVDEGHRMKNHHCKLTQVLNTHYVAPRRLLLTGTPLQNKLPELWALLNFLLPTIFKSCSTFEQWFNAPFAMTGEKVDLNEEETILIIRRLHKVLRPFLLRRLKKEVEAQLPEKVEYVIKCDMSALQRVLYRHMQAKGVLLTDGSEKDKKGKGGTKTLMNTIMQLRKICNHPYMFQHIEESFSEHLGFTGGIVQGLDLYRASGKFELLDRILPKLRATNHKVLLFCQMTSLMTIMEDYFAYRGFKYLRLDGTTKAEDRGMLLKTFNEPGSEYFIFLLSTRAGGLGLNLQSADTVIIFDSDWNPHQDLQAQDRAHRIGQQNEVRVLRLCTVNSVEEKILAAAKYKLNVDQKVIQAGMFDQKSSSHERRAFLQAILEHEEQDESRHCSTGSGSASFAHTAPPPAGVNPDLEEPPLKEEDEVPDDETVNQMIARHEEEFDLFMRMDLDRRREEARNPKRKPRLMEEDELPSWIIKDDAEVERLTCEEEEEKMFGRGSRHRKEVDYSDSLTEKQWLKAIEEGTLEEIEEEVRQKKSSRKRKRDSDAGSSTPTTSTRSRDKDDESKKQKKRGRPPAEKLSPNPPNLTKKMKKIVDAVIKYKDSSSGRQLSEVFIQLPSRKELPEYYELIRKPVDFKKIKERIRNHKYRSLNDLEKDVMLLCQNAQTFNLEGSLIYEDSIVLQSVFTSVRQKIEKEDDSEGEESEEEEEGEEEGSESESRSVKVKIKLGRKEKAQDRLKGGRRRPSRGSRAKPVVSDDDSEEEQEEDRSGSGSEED", "settings": "IMP-2586 labelling vs DMSO, 30 nM, 10 min, HEK293T (Table S4, Fig.5c)", "experimental": "as §1, §2, §3, §4, §5, §6, §7, §8, §9, §10, §11, §12"}, "TMEM109": {"target": "T10, TMEM109 (Homo sapiens, UniProt Q9BVC6)", "T10 construct": "endogenous in cells; host or cells: HEK293T", "T10 sequence (Q9BVC6 34-243)": "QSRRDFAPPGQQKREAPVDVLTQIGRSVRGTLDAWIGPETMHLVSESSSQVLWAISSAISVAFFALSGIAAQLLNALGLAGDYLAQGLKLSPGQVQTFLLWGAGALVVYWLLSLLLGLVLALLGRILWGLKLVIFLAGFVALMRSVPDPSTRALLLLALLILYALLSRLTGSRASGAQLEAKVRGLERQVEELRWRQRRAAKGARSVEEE", "settings": "IMP-2586 labelling vs DMSO, 30 nM, 10 min, HEK293T (Table S4, Fig.5c)", "experimental": "as §1, §2, §3, §4, §5, §6, §7, §8, §9, §10, §11, §12"}, "RPL10": {"target": "T11, RPL10 (Homo sapiens, UniProt P27635)", "T11 construct": "endogenous in cells; host or cells: HEK293T", "settings": "compound 1 out-competition with IMP-2587 labelling, HEK293T (Table S3, Fig.5b)", "experimental": "as §1, §2, §3, §4, §5, §6, §7, §8, §9, §10, §11, §12"}}, "data": [{"smiles": "C#Cc1cccc(-c2cc(NC(=O)CC3CCN(C#N)C3)on2)c1", "note": "(stereo not shown) [IMP-2587]", "values": [{"measurement": "Difference (log2 fold change of enrichment)", "setting": "NPM3", "result": 0.89}, {"measurement": "Difference (log2 fold change of enrichment)", "setting": "RPS8", "result": -0.44}, {"measurement": "Difference (log2 fold change of enrichment)", "setting": "UCHL1", "result": 0.76}]}, {"smiles": "N#CN1CC[C@@H](NC(=O)c2cc(-c3ccccc3Oc3ccc(N=[N+]=[N-])cc3)n[nH]2)C1", "note": "[IMP-2586]", "values": [{"measurement": "Difference (log2 fold change of enrichment)", "setting": "ALYREF", "result": -0.42}, {"measurement": "Difference (log2 fold change of enrichment)", "setting": "AURKAIP1", "result": 0.81}, {"measurement": "Difference (log2 fold change of enrichment)", "setting": "CAV1; CAV1 (Caveolin)", "result": -2.47}, {"measurement": "Difference (log2 fold change of enrichment)", "setting": "CAV1; CAV1 (Caveolin-1)", "result": -1.61}, {"measurement": "Difference (log2 fold change of enrichment)", "setting": "CNP", "result": -0.68}, {"measurement": "Difference (log2 fold change of enrichment)", "setting": "HSDL1", "result": 1.22}, {"measurement": "Difference (log2 fold change of enrichment)", "setting": "SFT2D3", "result": -1.51}, {"measurement": "Difference (log2 fold change of enrichment)", "setting": "SMARCA4", "result": 0.52}, {"measurement": "Difference (log2 fold change of enrichment)", "setting": "TMEM109", "result": -1.56}]}, {"smiles": "N#CN1CC[C@H](CC(=O)Nc2cc(-c3cccc(Cl)c3)no2)C1", "note": "[compound 1, reference compound]", "values": [{"measurement": "Difference (log2 fold change of enrichment)", "setting": "RPL10", "result": -0.52}]}]}
